Test results reported in US20090137427A1, “Method for generating hypermutable organisms” (The John Hopkins University School of Medicine, priority 2000, published 2009).

What was measured:
Format in all cases: cell-based, human
HCT116 cells = experiment: β-gal positive foci in pCAROF-transfected MMR defective cells exposed to chemical mutagen; conditions: 10 μM for 8 hours, 1,000 cells/plate, grown 10 days, triplicate
Source text: To enhance the rate of genetic mutations and produce cells with altered genes, RNA expression, or polypeptides, the use of MMR deficiency and chemical mutagens is a powerful tool to generate such diversity. The advantages of using MMR defective cells is that the decrease of this activity renders cells more resistant to the toxic effects of such compounds yet allows for the increase in genetic and phenotypic alterations of a host organism or cell. […] Cells that are genetically defective for MMR such as but not limited to HCT116, DLD-1, etc. or cells such as those described in example 1 and 2 that are made MMR defective by ectopic expression of a dominant negative allele is covered under this invention. Briefly, MMR proficient and deficient cells are incubated with a range (1 nm to 1 mM) of chemical mutagens for 1 hour to 24 hours at 37 C at 5% CO2 in growth medium. After incubation is complete, chemical mutagens are washed from medium and cells are grown in the presence of hypoxanthine, aminopterin, and […] to score for HPRT mutant cells as previously described (Walker, V E et. al. Mutat Res. 17:371-388, 1999.) and known to those skilled in the art. […] After 14 days, the numbers of HAT-resistant colonies are determined by counting under the microscope. […] Cells were grown for 10 days and scored for β-gal activity using methods described in EXAMPLE 1. […]

[1] = system: HCT116 cells cotransfected with polyPNP and pC9MLH constructs; experiment: MPD killing assay, MLH1 complementation; conditions: 300 μM
Source text: The restoration of genetic stability and the subsequent imprint of an altered gene locus or loci is an important invention of this application for producing viable biological products, whereby altered biomolecules, cells or whole organisms with desired altered output traits are made genetically stable for long term use. To generate stable MMR defective cell lines that has or has not been exposed to chemical mutagens and selected for desired genetic changes, the introduction of a complementing MMR gene that can substitute for the mutated endogenous MMR gene locus is taught in this application. […] In this example, a mammalian expression vector is used that encodes for the functional MLH1 polypeptide (pC9MLH1) or an expression vector that encodes for a MLH1 cDNA with a premature stop codon (pC9MLHstop). These expression vectors contain a neomycin (neo) resistance gene that allows for selection of cells containing this vector. […] Cells were selected for 10 days in neo and Hyg and resistant clones were isolated and expanded. Cells were then cultured in the presence of MPD and counted for growth after 10 days. […]
For MPD killing assay, cells were plated at 2×10^4 cell/ml and 1 ml aliquots were plated in 24-well costar tissue culture dishes. […] Cells were grown for 10 days trypsinized and counted on hemocytometer using trypan blue exclusion. […]

[2] = system: HCT116 cells expressing PNP; experiment: MPD killing assay; conditions: 50-300 μM, 10 days
Source text: (§1) The use of cells with defective MMR repair due to defects of endogenous genes such as but not limited to the HCT116, DLD-1, and HEC-1-A cells lines (ref. 12, 25 and Kondo, et. al. J Biochem 125:818-825, 1999) can be useful for altering the genetic structure of genes to produce commercially viable variant molecules such as novel anti-microbial agents, bioactive growth factors or hormones, altered antibody structures, etc. The utility and value of such a cell is that once an altered gene structure has been produced, the integrity of this gene alteration can be preserved in the cell's genome by making the cell genetically stable via the introduction of a functional complementing MMR gene. […] The polyPNP gene encodes for a non-functional PNP gene. When the poly-A tract is randomly altered by genetic alterations due to defective MMR, the tract is randomly altered, allowing for the production of a functional PNP gene and polypeptide. PNP converts the non-toxic 9-(β-D-2-deoxy-erythro-pento-furanosyl)-6-methyl-purine prodrug (referred to as MPD) substrate to the toxic 6-methyl purine analog (referred to as MP) (Sorscher, E J, et. al. Gene Therapy 1:233-238, 1994). The polyPNP gene was engineered to contain a hemaglutinin epitope tag at the C-terminus to facilitate the detection of the encoded polypeptide via western blot analysis using an anti-HA antibody. The polyPNP gene was cloned into the pCEP4 expression vector, which has a hygromycin resistance (Hyg) gene for selection. A homologous gene called PNP was also made in which an in-frame polyA tract is cloned into the N-terminus of the gene as a positive control for PNP activity. Briefly, the MMR defective HCT116 cell line and the MMR proficient HEK293 cell line were transfected with the polyPNP, the PNP expression vector, or an empty pCEP4 vector. Cells were then selected for Hyg resistance and clones were isolated. Expanded cells were grown in the presence of increasing amounts of MPD (0, 1, 10, 50, 100, 300 μM) for 10 days. After treatment period, cells were counted by hemocytometer and trypan blue exclusion.
(§2) Cells were transfected with PNP and/or MLH1 expression vectors using liposomes following the manufacturer's protocol (Gibco/BRL). Stably transfected cell lines were generated that express empty vector, PNP or polyPNP by transfection followed by hygromycin selection. For complementation experiments, HCT116 cells were transfected with PNP/MLH1, PNP/MLH1stop, polyPNP/MLH1 or polyPNP/MLH1 stop at a 1:1 ratio using 5 μg of each plasmid and cells were selected for hygromycin and neomycin resistance. After 10 days, drug-resistant colonies were observed and picked for analysis.
(§3) For MPD killing assay, cells were plated at 2×10^4 cell/ml and 1 ml aliquots were plated in 24-well costar tissue culture dishes. For killing assays, cells were plated in 0, 1, 10, 50, 100, and 300 μM MPD in triplicate. Cells were grown for 10 days trypsinized and counted on hemocytometer using trypan blue exclusion. Data are presented as a mean+/−SD for each study.

[3] = system: HEK293 cells expressing PNP; experiment: MPD killing assay; conditions: 50-300 μM, 10 days
Source text: as §1, §2, §3

HCT116/polyPNP cells = experiment: MPD killing assay; conditions: 10 days
Source text: as §1, §2, §3

HEK293/polyPNP cells = experiment: MPD killing assay; conditions: highest concentration (300 μM), 10 days
Source text: as §1, §2, §3

For `CCOS(C)(=O)=O` [EMS, ethyl methanesulfonate], the “number of β-gal positive foci” value (HCT116 cells) was 205+/−18 per dish.
`Cc1ncnc2c1ncn2[C@H]1C[C@H](O)[C@@H](CO)O1` [MPD, 9-(β-D-2-deoxyerythropentofuranosyl)-6-methyl-purine] was tested, and the “decrease in total cell growth compared to medium alone” value ([1]; cells expressing MLH1 (pC9MLH1) plus polyPNP) was 2%, the “reduction in cell growth compared to medium alone” value ([1]; cells transfected with MLHstop or empty vector and polyPNP) was 35% and the growth suppression [2] was 100%. The growth suppression [3] was 100%, the “decrease in cell numbers” value (HCT116/polyPNP cells; 100 μM) was 20% and the “decrease in cell numbers” value (HCT116/polyPNP cells; 300 μM) was 30%. For the same compound, the “decrease in cell growth (in words)” value (HEK293/polyPNP cells) was “no decrease in cell growth”.
